Measurements: patent US4638070A, “Heterocyclic amino-alcohol derivatives” (Continental Pharma, priority 1980, dated 1987)

Experiments:
[1] = test system: guinea-pig ileum (acetylcholine contractions); assay: Antispasmodic activity in vitro, contractions caused by acetylcholine; settings: added 15 minutes before spasm-producing agent
Method: (§1) (4) The antispasmodic activity was measured in vitro, on guinea-pig ileum, the contractions of which were caused by histammne (Hist.), acetylcholine (Achol) or barium chloride (BaCl2). The tested products were added to perfusion bath 15 minutes before the spasm-producing agents.
(§2) The dose is given in micograms (μg) per ml of bath causing complete spasm inhibition.

femoral artery = assay: Vasodilator activity, femoral artery (technique of perfused paw); type: in vivo; parameters: key: O: no action; +: slight activity; ++: effect equal to half the effect of papaverine; +++: effect equal to that of papaverine; ++++: effect higher than that of papaverine; settings: intra-arterial, 30 mg/kg, anaesthetized dog, vs papaverine at same dose
Method: (3) The vasodilator activity was measured at the level of femoral artery on anaesthetized dog (technique of perfused paw). The tested substances were given intra-arterially at the rate of 30 mg/kg. Results are expressed with respect to papaverine tested at the same dose.
++: effect equal to half the effect of papaverine.
+++: effect equal to that of papaverine.
++++: effect higher than that of papaverine.

[2] = test system: guinea-pig ileum (histamine contractions); assay: Antispasmodic activity in vitro, contractions caused by histamine; settings: added 15 minutes before spasm-producing agent
Method: as §1, §2

[3] = test system: unanaesthetized, hypertension-suffering rat; assay: Antihypertensive activity (systolic arterial pressure), oral; type: in vivo; settings: 60 mg/kg, hypertensive rat, 3 hours
Method: (2) The antihypertensive activity was measured on unanaesthetized, hypertension-suffering rat. The tested substances were orally given at a rate of 60 mg/kg. The systolic arterial pressure was measured every 30 minutes for 2 hours before and for 3 hours after the tested product was given. Results are expressed as follows: […]
O: no reduction of arterial pressure.
+: reduction lower than 10 mm Hg.
++: reduction of 10 to 20 mm Hg.
+++: reduction higher than 20 mm Hg.

[4] = Acute toxicity, oral, LD50 (Litchfield and Wilcoxon); settings: mouse, in vivo, fasted male mice, confidence limits p=95% in brackets
Method: (1) The acute toxicity was determined on fasted male mice. The tested substances were orally administered and LD50 values (lethal dose for 50% of animals) were calculated according to the method of Litchfield and Wilcoxon (J. Pharmacol. exp. Ther. 96, 94-113, 1949). These LD50 values are given in mg/kg and also, when possible, with their confidence limits for p=95%.

| SMILES | ANTISPASMODIC ACTIVITY ACHOL (dose causing complete spasm inhibition) [1] | VASODILATOR ACTIVITY (femoral artery) | ANTISPASMODIC ACTIVITY HIST. (dose causing complete spasm inhibition) [2] | ANTIHYPERTENSIVE ACTIVITY [3] | LD50 [4] |
| --- | --- | --- | --- | --- | --- |
| CC1Cc2cc(C(O)C(C)NCCOc3ccccc3)ccc2S1 (stereo not drawn) [No 61] | 3.3 μg per ml | ++ | 3.3 μg per ml | +++ (reduction higher than 20 mm Hg) | ~4000 mg/kg |
| CC1Cc2cc(C(O)C(C)NCCCC(=O)c3ccc(F)cc3)ccc2O1 (stereo not drawn) [No 105] | 3.3 μg per ml | +++ | 3.3 μg per ml | +++ (reduction higher than 20 mm Hg) | ~360 mg/kg |
| CC(NCCOc1ccc(Cl)cc1)C(O)c1ccc2c(c1)CCCS2 (stereo not drawn) [No 40] | 1.7 μg per ml | +++ | 1.7 μg per ml | +++ (reduction higher than 20 mm Hg) | > 4000 mg/kg |
| CC(NCCCCc1ccccc1)C(O)c1ccc2c(c1)CCO2 (stereo not drawn) [No 35] | 1.7 μg per ml | ++ | 0.8 μg per ml | +++ (reduction higher than 20 mm Hg) | 430 mg/kg |
| CCC(NCCCCc1ccccc1)C(O)c1ccc2c(c1)CCS2 (stereo not drawn) [No 115] | 1.7 μg per ml | +++ | 0.8 μg per ml | +++ (reduction higher than 20 mm Hg) | ~2500 mg/kg |
| CCC(=O)c1ccc(OCCNC(C)C(O)c2ccc3c(c2)CCS3)cc1 (stereo not drawn) [No 108] | 3.3 μg per ml | +++ | 0.8 μg per ml | ++ (reduction of 10 to 20 mm Hg) | > 4000 mg/kg |
| CC(NCCCSc1ccccc1)C(O)c1ccc2c(c1)CCS2 (stereo not drawn) [No 60] | 1.7 μg per ml | +++ | 3.3 μg per ml | +++ (reduction higher than 20 mm Hg) | > 2000 mg/kg |
| CC(NCCCCc1ccc(Cl)cc1)C(O)c1ccc2c(c1)CCC2 (stereo not drawn) [No 167] | 0.8 μg per ml | +++ | 0.8 μg per ml | +++ (reduction higher than 20 mm Hg) | ~270 mg/kg |
| CC(NCCCC(=O)c1ccc(F)cc1)C(O)c1ccc2c(c1)CCS2 (stereo not drawn) [No 111] | 0.8 μg per ml | +++ | 0.3 μg per ml | ++ (reduction of 10 to 20 mm Hg) | ~700 mg/kg |
| CC1Cc2cc(C(O)C(C)NCCOc3ccc(Cl)cc3)ccc2O1 (stereo not drawn) [No 84] | 3.3 μg per ml | +++ | 8.3 μg per ml | +++ (reduction higher than 20 mm Hg) | 1200 mg/kg |
| CC1CSc2ccc(C(O)C(C)NCCCCc3ccccc3)cc2C1 (stereo not drawn) [No 45] | 0.8 μg per ml | +++ | 0.8 μg per ml | + (reduction lower than 10 mm Hg) | > 4000 mg/kg |
| CC(NCCOc1ccccc1)C(O)c1ccc2c(c1)CCCCS2 (stereo not drawn) [No 36] | 1.7 μg per ml | +++ | 3.3 μg per ml | +++ (reduction higher than 20 mm Hg) | > 4000 mg/kg |
| CC(NCCCc1ccc(Cl)cc1)C(O)c1ccc2c(c1)CCCS2 (stereo not drawn) [No 78] | 1.7 μg per ml | ++++ | 0.8 μg per ml | +++ (reduction higher than 20 mm Hg) | 725 mg/kg |
| CC1Cc2cc(C(O)C(C)NCCCCc3ccc(Cl)cc3)ccc2O1 (stereo not drawn) [No 65] | 1.7 μg per ml | +++ | 0.8 μg per ml | +++ (reduction higher than 20 mm Hg) | 160 mg/kg |
| CC1CSc2ccc(C(O)C(C)NCCOc3ccccc3)cc2C1 (stereo not drawn) [No 49] | 1.7 μg per ml | +++ | 3.3 μg per ml | +++ (reduction higher than 20 mm Hg) | ~3700 mg/kg |
| CC1Cc2cc(C(O)C(C)NCCCCc3ccccc3)ccc2O1 (stereo not drawn) [No 70] | 1.7 μg per ml | ++ | 1.7 μg per ml | +++ (reduction higher than 20 mm Hg) | 285 mg/kg |
| CC(NCCCC(=O)c1ccc(F)cc1)C(O)c1ccc2c(c1)CCCS2 (stereo not drawn) [No 102] | 0.3 μg per ml | ++ | 0.8 μg per ml | +++ (reduction higher than 20 mm Hg) | > 4000 mg/kg |
| CC1Cc2cc(C(O)C(C)NCCOc3ccc(Cl)cc3)ccc2S1 (stereo not drawn) [No 58] | 1.7 μg per ml | +++ | 1.7 μg per ml | +++ (reduction higher than 20 mm Hg) | > 4000 mg/kg |
| CCCCCCCCNC(C)C(O)c1ccc2c(c1)CCC2 (stereo not drawn) [No 164] | 0.8 μg per ml | +++ | 0.8 μg per ml | ++ (reduction of 10 to 20 mm Hg) | 1750 mg/kg |
| CC(NCCOc1ccc(Cl)cc1)C(O)c1ccc2c(c1)CCC2 (stereo not drawn) [No 169] | 0.8 μg per ml | +++ | 3.3 μg per ml | +++ (reduction higher than 20 mm Hg) | > 4000 mg/kg |
| CC1CSc2ccc(C(O)C(C)NCCCCc3ccccc3)cc21 (stereo not drawn) [No 109] | 0.8 μg per ml | +++ | 0.17 μg per ml | +++ (reduction higher than 20 mm Hg) | ~2750 mg/kg |
| CC(C(O)c1ccc2c(c1)CCC2)N1CCC(Cc2ccccc2)CC1 (stereo not drawn) [No 172] | 1.7 μg per ml | ++++ | 0.08 μg per ml | +++ (reduction higher than 20 mm Hg) | 1900 mg/kg |
| CC1CCc2cc(C(O)C(C)NCCCCc3ccccc3)ccc2S1 (stereo not drawn) [No 5, 1-(2-methyl-6-thiochromanyl)-2-(4-phenylbutylamino)-1-propanol] | 3.3 μg per ml | ++++ | – | ++ (reduction of 10 to 20 mm Hg) | 3600 mg/kg |
